Structures can show the parent of a compound that is named as a salt.

One data set has as its target T1, rHDAC1 (Homo sapiens, UniProt Q13547).
T1 construct: FLAG; made in house
In words: rHDAC1 enzymatic assay (recombinant FLAG-HDAC1). The class given is biochemical. The settings on record: FLAG-HDAC1 from HEK293; 6 μM Ac-NH-GGK(Ac)-AMC, 3 h at 30° C.; read-out: rHDAC1 [pIC50] (converted). The source says: (§1) Human HDAC1 and HDAC6 fused with the FLAG epitope are stably expressed in HEK293 cells while human HDAC3 and HDAC8 fused with the FLAG epitope are overexpressed in baculo-virus infected insect (Sf21) cells. To ensure stability of FLAG-HDAC3 the SMRT protein is co-expressed in the corresponding insect cells. […] FLAG-HDAC3 and FLAG-HDAC8 are also purified by M2-agarose affinity chromatography after mass cultivation of the insect cells and cell lysis.
(§2) The HDAC enzyme activity assay is done as described by Wegener et al. (Chem. & Biol. 10, 61-68, 2003). Briefly 40 μl of a 1:100 dilution (=0.4 μl) nuclear HeLa extract (mixture of class I and II HDACs), 29 μl enzyme buffer (15 mM Tris HCl pH 8.1, 0.25 mM EDTA, 250 mM NaCl, 10% v:v glycerol) and 1 μl test compound are added to a well of a 96 well microtiter plate and reaction started by addition of 3 μl substrate (Ac-NH-GGK(Ac)-AMC; final concentration 25 μM and final volume […]). […] After incubation at room temperature for further 40 min, fluorescence is measured using a Wallac Victor 1420 multilabel counter (Ex 355 nm, Em 460 nm) for quantification of AMC (7-amino-4-methylcoumarin) generated by trypsine cleavage of the deacetylated peptide. […] The corresponding pIC50 values of the compounds for HDAC inhibitory activity are determined from the concentration-effect curves by means of non-linear regression (Graphpad Prism software).
(§3) The HDAC1, HDAC3 and HDAC6 enzymatic assays are done with slight modifications with recombinant FLAG-HDAC1 and FLAG-HDAC6 proteins isolated from HEK293 cell lysates or recombinant FLAG-HDAC3 isolated from insect cells, respectively. The HDAC8 enzymatic assay using recombinant FLAG-HDAC8 isolated from insect cells is done with a different substrate. About 4.5 ng/well FLAG-HDAC1 and 3.1 ng/well FLAG-HDAC6 (dependent on batches and specific activity) are incubated with 6 μM or 10 μM Ac-NH-GGK(Ac)-AMC substrate, respectively, for 3 h at 30° C. About 1.7 ng/well FLAG-HDAC3 is incubated with 6 μM Ac-NH-GGK(Ac)-AMC substrate for 2 h at 30° C., while approximately 130 ng/well FLAG-HDAC8 is incubated with 50 μM Ac-RHK(Ac)K(Ac)-AMC substrate for 3 h at 30° C. Termination of the reaction and all further steps are done as described for HeLa cell nuclear extracts as a source for HDAC enzymatic activity. The corresponding pIC50 values of the compounds for HDAC1, HDAC3, HDAC6 and HDAC8 inhibitory activity are determined from the concentration-effect curves by means of non-linear regression.

A further data set deals with T2, rHDAC3 (Homo sapiens, UniProt O15379).
T2 construct: FLAG; made in house; host or cells: baculovirus-infected Sf21 insect cells
T2 sequence (O15379 whole entry): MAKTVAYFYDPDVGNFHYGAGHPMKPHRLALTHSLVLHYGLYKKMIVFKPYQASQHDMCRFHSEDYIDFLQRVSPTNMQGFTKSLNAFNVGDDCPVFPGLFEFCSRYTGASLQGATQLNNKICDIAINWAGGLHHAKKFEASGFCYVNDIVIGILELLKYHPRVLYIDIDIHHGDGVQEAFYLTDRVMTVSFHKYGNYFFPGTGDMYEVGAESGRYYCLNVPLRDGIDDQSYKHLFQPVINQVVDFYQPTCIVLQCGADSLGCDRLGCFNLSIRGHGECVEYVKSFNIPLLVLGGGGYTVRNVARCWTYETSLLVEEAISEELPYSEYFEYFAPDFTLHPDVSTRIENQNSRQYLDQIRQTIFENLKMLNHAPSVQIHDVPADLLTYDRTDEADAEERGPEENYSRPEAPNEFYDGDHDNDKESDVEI
T2 sequence (Q9Y618 whole entry partner): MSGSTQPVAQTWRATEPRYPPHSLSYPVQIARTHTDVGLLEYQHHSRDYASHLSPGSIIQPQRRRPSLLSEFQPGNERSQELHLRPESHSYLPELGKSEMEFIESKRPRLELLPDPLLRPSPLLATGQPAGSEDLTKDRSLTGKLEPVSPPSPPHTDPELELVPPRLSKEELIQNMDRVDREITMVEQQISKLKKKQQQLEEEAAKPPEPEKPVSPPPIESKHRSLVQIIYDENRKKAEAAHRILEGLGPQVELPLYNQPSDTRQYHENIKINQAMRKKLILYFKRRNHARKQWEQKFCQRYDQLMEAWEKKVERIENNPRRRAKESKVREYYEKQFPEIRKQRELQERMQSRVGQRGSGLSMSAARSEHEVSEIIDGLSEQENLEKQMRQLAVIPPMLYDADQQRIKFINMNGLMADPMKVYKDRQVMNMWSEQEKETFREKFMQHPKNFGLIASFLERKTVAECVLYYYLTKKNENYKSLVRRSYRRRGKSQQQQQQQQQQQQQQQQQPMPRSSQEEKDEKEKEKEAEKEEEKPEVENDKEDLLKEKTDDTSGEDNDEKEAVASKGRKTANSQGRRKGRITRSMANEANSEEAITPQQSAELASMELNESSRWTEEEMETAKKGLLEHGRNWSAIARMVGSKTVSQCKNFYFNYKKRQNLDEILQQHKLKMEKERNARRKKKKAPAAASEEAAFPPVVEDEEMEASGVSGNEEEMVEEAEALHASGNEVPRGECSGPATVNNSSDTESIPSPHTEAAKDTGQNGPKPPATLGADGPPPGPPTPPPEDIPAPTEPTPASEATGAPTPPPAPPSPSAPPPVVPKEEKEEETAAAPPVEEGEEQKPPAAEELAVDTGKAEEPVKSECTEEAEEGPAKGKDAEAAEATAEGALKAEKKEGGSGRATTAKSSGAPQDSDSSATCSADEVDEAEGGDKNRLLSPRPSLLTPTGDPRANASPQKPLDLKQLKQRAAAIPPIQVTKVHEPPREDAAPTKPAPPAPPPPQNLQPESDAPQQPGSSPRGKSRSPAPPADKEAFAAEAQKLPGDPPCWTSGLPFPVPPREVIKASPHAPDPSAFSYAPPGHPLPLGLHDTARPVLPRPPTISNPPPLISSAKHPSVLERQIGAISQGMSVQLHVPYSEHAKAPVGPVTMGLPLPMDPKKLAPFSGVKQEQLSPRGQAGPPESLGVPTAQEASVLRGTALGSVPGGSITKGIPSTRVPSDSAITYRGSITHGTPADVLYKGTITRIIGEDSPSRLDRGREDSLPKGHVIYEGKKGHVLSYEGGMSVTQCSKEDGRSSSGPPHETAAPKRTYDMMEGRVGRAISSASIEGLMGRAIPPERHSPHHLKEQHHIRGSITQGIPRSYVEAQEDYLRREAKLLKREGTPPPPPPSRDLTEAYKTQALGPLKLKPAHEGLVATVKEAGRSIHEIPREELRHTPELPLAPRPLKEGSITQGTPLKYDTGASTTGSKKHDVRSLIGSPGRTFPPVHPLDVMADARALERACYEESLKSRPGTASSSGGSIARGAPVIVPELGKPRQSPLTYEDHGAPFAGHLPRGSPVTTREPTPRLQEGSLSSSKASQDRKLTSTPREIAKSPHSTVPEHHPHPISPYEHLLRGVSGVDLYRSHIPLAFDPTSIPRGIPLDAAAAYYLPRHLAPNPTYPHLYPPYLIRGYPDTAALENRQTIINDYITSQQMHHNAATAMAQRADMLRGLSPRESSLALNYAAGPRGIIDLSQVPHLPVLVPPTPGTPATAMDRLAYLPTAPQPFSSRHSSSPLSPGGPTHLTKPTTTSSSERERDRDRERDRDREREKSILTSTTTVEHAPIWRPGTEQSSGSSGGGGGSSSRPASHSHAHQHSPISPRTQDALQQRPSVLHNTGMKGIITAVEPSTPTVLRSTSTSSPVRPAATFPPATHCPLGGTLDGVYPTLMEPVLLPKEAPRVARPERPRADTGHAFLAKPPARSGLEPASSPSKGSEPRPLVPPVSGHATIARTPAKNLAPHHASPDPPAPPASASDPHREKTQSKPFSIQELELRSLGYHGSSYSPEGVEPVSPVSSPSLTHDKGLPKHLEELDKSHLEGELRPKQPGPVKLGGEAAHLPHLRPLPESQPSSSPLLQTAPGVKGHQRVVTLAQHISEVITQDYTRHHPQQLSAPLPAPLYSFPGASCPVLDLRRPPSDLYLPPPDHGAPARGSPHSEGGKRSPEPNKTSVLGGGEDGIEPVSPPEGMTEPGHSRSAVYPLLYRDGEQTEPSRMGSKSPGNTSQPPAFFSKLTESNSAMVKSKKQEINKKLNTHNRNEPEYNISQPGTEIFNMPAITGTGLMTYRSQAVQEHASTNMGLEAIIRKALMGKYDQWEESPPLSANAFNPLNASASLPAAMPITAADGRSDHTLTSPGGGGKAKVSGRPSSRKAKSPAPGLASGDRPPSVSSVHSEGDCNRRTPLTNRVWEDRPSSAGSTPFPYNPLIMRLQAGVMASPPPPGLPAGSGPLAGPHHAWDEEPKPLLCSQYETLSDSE
In words: rHDAC3 enzymatic assay (recombinant FLAG-HDAC3). Format: biochemical. The settings on record: FLAG-HDAC3 from insect cells; 6 μM Ac-NH-GGK(Ac)-AMC, 2 h at 30° C.; read-out: rHDAC3 [pIC50] (converted).
From the text: as §1, §2, §3

Data set [1] is described as follows: Cellular cytotoxicity assay (Alamar Blue/Resazurin), A549. Format: cell-based. The settings on record: human, A549 cells; A549, 72 hours incubation, Resazurin; read-out: A549 Cytotoxicity [pIC50] (converted). On the procedure:
(§4) The anti-proliferative activity of the compounds as described herein, is evaluated with various solid and hematological cancer cell lines using the Alamar Blue (Resazurin) cell viability assay (O'Brien et al, Eur J Biochem 267, 5421-5426, 2000). Resazurin is reduced to the fluorescent resorufin by cellular dehydrogenase activity, correlating with viable, proliferating cells. Test compounds are dissolved as 20 mM solutions in dimethylsulfoxide (DMSO) and subsequently diluted in semi-logarithmic steps. The cancer cell lines are seeded into 96 well flat bottom plates at respective cell densities in a volume of 200 μl per well to allow continuous proliferation during the experiment. 24 hours after seeding 1 μl each of the compound dilutions is added into each well of the 96 well plate. Wells containing untreated control cells are filled with 200 μl DMEM medium containing 0.5% v:v DMSO. The cells are then incubated with the substances for 72 hours at 37° C. in a humidified atmosphere containing 5% carbon dioxide. To determine the viability of the cells, 20 μl of a Resazurin solution (Sigma; 90 mg/l) are added. After 4 hours incubation at 37° C. the fluorescence is measured at an extinction of 544 nm and an emission of 590 nm. For the calculation of the cell viability the emission value from untreated cells is set as 100% viability and the emission rates of treated cells are set in relation to the values of untreated cells. Viabilities are expressed as % values. The corresponding pIC50 values of the compounds for cytotoxic activity are determined from the concentration-effect curves by means of non-linear regression.
Background: The colour change of resazurin is a common sign of viable cells or microbes.

Data set [2] in a line: Cellular cytotoxicity assay (Alamar Blue/Resazurin), HeLa. The class given is cell-based. The settings on record: human, HeLa cells, 72 hours incubation, Resazurin, read-out: HeLa Cytotoxicity [pIC50] (converted). The protocol: as §4
Data set [3] relates to nuclear HeLa extract (mixture of class I and II HDACs). The experiment in a line: Fluorimetric HDAC activity assay with nuclear HeLa extract. Format: biochemical, human. The settings on record: nuclear HeLa extract inhibitory activity, substrate Ac-NH-GGK(Ac)-AMC 25 μM, 90 min at 30° C. The protocol:
HDAC activity is isolated from nuclear HeLa extracts according to a method original described by Dignam et al. (Nucl. Acids Res. 11, pp 1475, 1983). Briefly, nuclei isolated from HeLa cells (CIL SA, Seneffe, Belgium) are resuspended in buffer C (20 mM Hepes pH 7.9, 25% v:v glycerol, 0.42M NaCl, 1.5 mM MgCl2, 0.2 mM EDTA, 0.5 mM PefaBloc and 0.5 mM DTT) and stirred for 30 min on ice. After centrifugation, the supernatant is dialysed against buffer D (40 mM Tris HCl pH 7.4, 100 mM KCl, 0.2 mM EDTA, 0.5 mM DTT and 25% v:v glycerol) for 5 h at 4° C. After dialysis and centrifugation, the supernatant is stored in aliquots at −80° C. and used for Western blot analysis as well as the enzymatic assay as described in the following.
The HDAC enzyme activity assay is done as described by Wegener et al. (Chem. & Biol. 10, 61-68, 2003). […] After incubation at room temperature for further 40 min, fluorescence is measured using a Wallac Victor 1420 multilabel counter (Ex 355 nm, Em 460 nm) for quantification of AMC (7-amino-4-methylcoumarin) generated by trypsine cleavage of the deacetylated peptide. […] The corresponding pIC50 values of the compounds for HDAC inhibitory activity are determined from the concentration-effect curves by means of non-linear regression (Graphpad Prism software).

The nature of data set [4]: Cellular cytotoxicity assay (Alamar Blue/Resazurin), RKOp21. The class given is cell-based. The settings on record: human, RKOp21 cells; RKOp21, 72 hours incubation, Resazurin; read-out: RKOp21 Cytotoxicity [pIC50] (converted). On the procedure:
as §4

T1 sequence (Q13547 whole entry): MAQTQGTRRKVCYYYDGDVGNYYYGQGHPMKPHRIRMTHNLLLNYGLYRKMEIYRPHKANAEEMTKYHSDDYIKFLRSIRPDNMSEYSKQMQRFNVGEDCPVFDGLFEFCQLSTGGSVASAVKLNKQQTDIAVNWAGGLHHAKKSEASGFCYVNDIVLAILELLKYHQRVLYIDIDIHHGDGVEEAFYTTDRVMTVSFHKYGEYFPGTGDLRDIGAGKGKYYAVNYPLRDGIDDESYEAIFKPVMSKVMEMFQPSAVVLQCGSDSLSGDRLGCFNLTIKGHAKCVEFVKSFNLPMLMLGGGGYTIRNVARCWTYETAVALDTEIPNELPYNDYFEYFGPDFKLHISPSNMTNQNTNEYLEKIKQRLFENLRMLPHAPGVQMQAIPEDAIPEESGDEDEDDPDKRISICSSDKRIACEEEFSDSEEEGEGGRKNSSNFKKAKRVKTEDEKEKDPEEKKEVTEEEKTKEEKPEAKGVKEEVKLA

Consider `O=C(NO)c1ccc2c(c1)CCN(C(=O)C1CC1)C2` [Example 16, N-Hydroxy-2-(cyclopropylcarbonyl)-1,2,3,4-tetrahydroisoquinoline-6-carboxamide], for which the melting point (commonly the temperature of the solid-liquid transition) stood at 90 °C. On rHDAC1, the IC50 was 0.1 to 10 µM. The IC50 on rHDAC3 was 10 to 100 µM. Besides, in data set [1], the IC50 at 72 h was > 100 µM. For the same compound, the IC50 at 72 h in data set [2] is > 100 µM.

`COc1ccc2[nH]c(C(=O)N3CCc4cc(C(=O)NO)ccc4C3)cc2c1` [Example 15, N-Hydroxy-2-[(5-methoxy-1H-indol-2-yl)carbonyl]-1,2,3,4-tetrahydroisoquinoline-6-carboxamide]: the melting point came to 156 °C. Besides, the “HeLa nuclear extract [pIC50]” value in data set [3] (listed as Ex. 15) stood at 6.10. Besides, the IC50 at rHDAC1 is 0.1 to 10 µM. For the same compound, at rHDAC3, the IC50 was 1 to 10 µM. Also, the IC50 at 72 h in data set [1] is 1 to 100 µM. Besides, the IC50 at 72 h in data set [2] is 1 to 100 µM.

Consider `O=C(NO)c1ccc2c(c1)CCN(C(=O)Cc1cccnc1)C2` [Example 8, N-Hydroxy-2-(pyridin-3-ylacetyl)-1,2,3,4-tetrahydroisoquinoline-6-carboxamide hydrochloride], for which the IC50 on rHDAC1 and on rHDAC3 was 10 to 100 µM each time. The IC50 at 72 h in data set [1], in data set [2] and in data set [4] was > 100 µM in each case.

As to `O=C(NO)c1ccc2c(c1)CN(C(=O)C1CCOC1)CC2` (centres unmarked) [Example 20, N-Hydroxy-2-(tetrahydrofuran-3-ylcarbonyl)-1,2,3,4-tetrahydroisoquinoline-7-carboxamide], the IC50 was 0.1 to 10 µM on rHDAC1 and 10 to 100 µM at rHDAC3. The IC50 at 72 h in data set [1], in data set [2] and in data set [4] was > 100 µM each time.

Regarding `COCCOCC(=O)N1CCc2cc(C(=O)NO)ccc2C1` [Example 11, N-Hydroxy-2-[(2-methoxyethoxy)acetyl]-1,2,3,4-tetrahydroisoquinoline-6-carboxamide], in data set [3] (listed as Ex. 11), the “HeLa nuclear extract [pIC50]” value amounted to 4.22. The IC50 at rHDAC1 and on rHDAC3 was 10 to 100 µM each time. Also, the IC50 at 72 h in data set [1] and in data set [2] was > 100 µM in each case.

The values above are taken from patent publication US8575193B2, “N-substituted tetrahydroisoquinoline/isoindoline hydroxamic acid compounds” (4SC AG, priority 2008, dated 2013).
